{
  "source": "patent US7579374B2",
  "about": "“Agent for improving bone metabolism” (The Nisshin OilliO Group, Ltd., priority 2001, dated 2009)",
  "key": {"MC3T3-E1 cells [1]": {"test_system": "MC3T3-E1 cells", "assay": "Alkaline phosphatase (ALP) activity of osteoblasts in cell culture system", "assay_type": "cell-based, mice", "details": "2.5 μM", "description": "(§1) In such a system, the osteoblasts are proliferated and the activity of osteoblasts is increased. Therefore, any influence of a substance on the osteoblast-formation can be evaluated by determining, for instance, the rate of cell proliferation and the alkaline phosphatase (ALP) activity as an activity parameter.\n(§2) In this Example, there were examined the effects of the chain isoprenoid fatty acid esters on the differentiation and calcium-accumulation of MC3T3-E1 cells or the osteoblasts derived from the skull-caps of mice. A culture medium was added to a 6-well plate in an amount of 2 mL/well, a desired number of MC3T3-E1 cells was inoculated on the medium and the cells were cultivated in a 10% fatal bovine serum-containing base culture liquid (α-MEM, available from Gibco Company) at 37° C. in an atmosphere of 5% CO2. On the day subsequent to the initiation of the cultivation, the culture medium was replaced with the fresh one and simultaneously a solution containing each test sample (the chain isoprenoid fatty acid esters obtained in Preparation Examples 1 to 9) was admixed with and added to the culture medium in an amount of 10 μM for the determination of the cell growth rate and 2.5 μM for the determination of the alkali phosphatase (ALP) activity and the cultivation was continued. The cells for the cell growth rate determination were recovered after 3 days from the initiation of the cultivation and the number of viable cells was counted to determine the cell growth rate. Regarding the other cells, the medium was replaced with fresh one on 5th day of cultivation, the test sample-containing solution was again added and the alkali phosphatase (ALP) activity was determined after the cultivation over one week.\nIn these experiments, there was used a kit for Alkaline Phospha K-Test WAKO (available from WAKO Pure Chemical Co., Ltd.). A sample used was a suspension of cells obtained by cultivating the same in the presence of each test substance added. A substrate (150 μL) was added to 10 μL of each sample followed by heating at 37° C. for 15 minutes, the addition of 150 μL of a color-developing liquid and determination of the absorbance at 570 nm. The ALP activity corresponding to each absorbance thus measured was determined using a calibration curve prepared in advance."}, "osteoclasts": {"test_system": "osteoclasts", "assay": "Bone absorption-inhibitory action in cell co-cultivation system (TRACP activity)", "assay_type": "cell-based, mice", "details": "10 μM test substance", "description": "The cell co-culture system used herein means a system in which osteoblasts and hematopoietic cells are subjected to co-culture in the presence of a factor for promoting the formation of osteoclasts and which thus easily permits the analysis of the differentiation process of the osteoclasts (Endocrinology, 1988, 123: 2600-2602). In such a system, osteoclasts are formed and therefore, the degree of osteoclast-formation can be evaluated by the determination of a tartaric acid-resistant acid phosphatase (TRACP) activity in the cell layer as the parameter indicative of the osteoclast.\nThe test for the confirmation of the bone absorption-inhibitory action of the isoprenoid ester was carried out according to the method disclosed in the literature (Endocrinology, 1988, 123: 2600). The method will be outlined below:\nStroma cells collected from the skull-caps of two-week-old mice according to the method disclosed in the literature (Endocrinology, 1988, 123: 2600) were dispersed in a 10% fetal bovine serum-containing culture base liquid (α-MEM; available from Gibco Company) to a cell density of 5×10^4 cells/mL.\nSpleen cells collected from the spleen of 6-week-old ddy male mice according to the method disclosed in the literature (Proc. Natl. Acad. Sci. USA, 1983, 80: 5583) were dispersed in a 10% fetal bovine serum-containing culture base liquid (α-MEM; available from Gibco Company) to a cell density of 5×10^5 cells/mL.\nThe co-cultivation was carried out in a 5% CO2-containing atmosphere at a temperature of 37° C. using a 10% FBS (fetal bovine serum)-containing culture base liquid (α-MEM; available from Gibco Company). Osteoblast cells were inoculated on a 24-well petri dish at a cell density of 5×10^4 cells/mL/well, spleen cells were then inoculated thereon at a cell density of 5×10^5 cells/mL/well after one day and a solution of a test substance, which had been dissolved in DMSO in a concentration of 10^-2M, was then added to each well in such a manner that the concentration of the test substance was equal to 10 μM. These cells were cultivated in the presence of 10 nM Calcitriol and 100 nM Dexamethasone over 2 weeks while defining the day on which the spleen cells were inoculated as 0th day. In this respect, the culture medium was replaced with fresh one twice a week. After two weeks, the activity of the tartrate-resistant acid phosphatase (hereunder referred to as “TRACP”) in the cell layer was determined, which served as a parameter indicating the number of osteoclasts in the layer.\nIn the determination of the TRACP activity, there was used a kit of acid phosphatase KII-WAKO (available from WAKO Pure Chemical Co., Ltd.). The culture medium was removed from the Petri dish, 500 μL each of a substrate was added to each well, the resulting cell suspension was heated at 37° C. for 15 minutes, followed by the addition of 500 μL each of a color developing liquid and the determination of the absorbance at a wavelength of 570 nm. The TRACP activity corresponding to each absorbance thus measured was determined using a calibration curve prepared in advance."}, "Test for acute toxicity": {"assay": "Test for acute toxicity", "assay_type": "in vivo, rats", "details": "oral", "protocol": "The acute toxicity test was carried out according to the following method. Whister female rats (6-week-old, average body weight: 160 g) were previously kept for one week using a powdery blend feed having an AIN-93 composition, divided into three groups (each group containing 10 animals) in such a manner that the average body weight was uniform and the groups were specified as the orally administered group, the subcutaneously administered group and the intraperitoneally administered group, in the following tests. Geranyl-geranyl eicosapentaenoate prepared according to the procedures used in Example 5 was dissolved in cotton seed oil and administered to the foregoing animals through the corresponding administration routes in an amount of 2000 mg/kg (body weight). Subsequently, these animals were kept using a powdery blend feed having an AIN-93 composition to thus observe the prognostic conditions of the animals over 2 weeks after the administration and after 2 weeks, these animals were anatomized to thus inspect the animals for conditions of internal organs thereof."}, "MC3T3-E1 cells [2]": {"test_system": "MC3T3-E1 cells", "assay": "Cell growth rate of osteoblasts in cell culture system", "assay_type": "cell-based, mice", "details": "10 μM; viable cells after 3 days; relative to control defined as 100", "description": "as §1, §2\nThe cell growth rate was calculated as a value relative to the cell growth rate observed for the control (free of any added test sample), which was defined to be 100."}},
  "data": [
    {"substance": "Geranyl-Geranyl Eicosapentaenoate", "values": [
      {"measurement": "ALP Act.", "setting": "MC3T3-E1 cells [1]; cultivation over one week, control 71.6 ± 4.6", "value": "123.5 ± 7.3", "unit": "KA-U/well"},
      {"measurement": "Judged Efficacy (ALP, t-test relative to the control)", "setting": "MC3T3-E1 cells [1]; one week", "value": "⊚ (The test substance shows a considerable inhibitory effect (p < 0.01))"},
      {"measurement": "Judged Efficacy (TRACP, t-test relative to the control)", "setting": "osteoclasts; 2 weeks", "value": "⊚ (The test substance shows a considerable inhibitory effect (p < 0.01))"},
      {"measurement": "TRACP Act.", "setting": "osteoclasts; co-culture 2 weeks with 10 nM Calcitriol and 100 nM Dexamethasone, control 102.8 ± 12.6", "value": "9.7 ± 1.4", "unit": "KA-U/well"},
      {"measurement": "Anatomical findings of the internal organs", "setting": "Test for acute toxicity; 2000 mg/kg, subcutaneous, intraperitoneal, after 2 weeks", "value": "normal"},
      {"measurement": "Mortality", "setting": "Test for acute toxicity; 2000 mg/kg, subcutaneous, intraperitoneal, after 2 weeks from the administration", "value": "any animal was not killed"},
      {"measurement": "LD50 value", "setting": "Test for acute toxicity; female rats, subcutaneous and intraperitoneal groups, single 2000 mg/kg in cotton seed oil, 2 weeks observation", "value": "higher than 2000 mg/kg (body weight)"},
      {"measurement": "Cell Growth Rate", "setting": "MC3T3-E1 cells [2]", "value": 107.8, "unit": "%"}
    ]}
  ]
}
